The record followed here is paper PMC7321301, “Characteristics of New Peptides GQLGEHGGAGMG, GEHGGAGMGGGQFQPV, EQGFLPGPEESGR, RLARAGLAQ, YGNPVGGVGH, and GNPVGGVGHGTTGT as Inhibitors of Enzymes Involved in Metabolic Syndrome and Antimicrobial Potential” (Molecules, 2020).

The test system of one data set is HECa10 cells. Briefly: Neutral red (NR) test. In kind it is cell-based, murine. The conditions noted are these: 24-h incubation, 0.1–100 µg/mL. The protocol:
The study was conducted according to the procedure described by Rokicki et al.. HECa10 cells after 80–90% confluence were trypsinized (3 min, 37 °C), centrifuged (300 g, 5 min), counted, and plated in 96-well plates at a concentration of 1 × 10^4 cells/well. Then, 24 h after seeding, cells were washed with phosphate-buffered saline (PBS) solution and culture medium (Dulbecco’s Modified Eagle Medium (DMEM) + 10% fetal bovine serum (FBS) + antibiotics, all from Life Technologies, Warsaw, Poland) was added with test factors in concentrations: 0.1; 1; 5; 10; 50; 100 µg/mL). Then, 24 h after addition of the compounds, proliferation tests (MTT, NR, LDH) were performed. The color intensity was determined using a Fluostar Omega microplate reader. Results are presented as the mean ± SD of 3 independent experiments (n = 12).
The cells were seeded in a 96-well culture plate at a concentration of 1 × 10^4 cells/well. Then, 24 h after seeding, the cells were rinsed twice with PBS (Life Technologies, Poland) and resuspended in fresh growth medium. Peptide fractions were added at concentrations of 0 (control), 0.1, 1, 5, 10, 50, and 100 µg/mL. After 24 h of incubation with the proteins, the uptake of the neutral red (NR kit, Sigma Aldrich, Poznań, Poland,) was assessed. The absorption was measured at a wavelength of 540 nm with the background cutoff at 690 nm (FLUOstar Omega, BMG Labtech GmbH, Ortenberg, Germany). The results are presented as the percentage of the control values (mean ± SD). Each assay was performed in triplicate (n = 18).

The target in a further data set is T1, COX-1 (Ovis aries, UniProt P05979).
T1 sequence (P05979 25-600): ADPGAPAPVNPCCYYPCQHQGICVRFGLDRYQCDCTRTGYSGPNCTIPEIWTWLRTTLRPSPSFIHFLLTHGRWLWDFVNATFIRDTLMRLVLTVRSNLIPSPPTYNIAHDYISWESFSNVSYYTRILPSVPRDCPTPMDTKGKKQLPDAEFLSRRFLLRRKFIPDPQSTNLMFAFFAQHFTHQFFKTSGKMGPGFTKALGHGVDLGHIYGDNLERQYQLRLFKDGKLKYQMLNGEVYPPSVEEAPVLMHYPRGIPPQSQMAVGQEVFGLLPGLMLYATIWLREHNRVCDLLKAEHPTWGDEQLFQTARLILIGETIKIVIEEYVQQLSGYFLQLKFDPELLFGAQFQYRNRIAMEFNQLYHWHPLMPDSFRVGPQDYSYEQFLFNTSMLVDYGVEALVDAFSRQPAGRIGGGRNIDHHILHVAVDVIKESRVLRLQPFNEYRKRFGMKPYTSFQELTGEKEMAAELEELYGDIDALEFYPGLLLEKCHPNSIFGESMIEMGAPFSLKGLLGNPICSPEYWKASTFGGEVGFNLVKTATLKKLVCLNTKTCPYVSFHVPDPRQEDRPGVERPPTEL
Description: COX-1 inhibitory activity (COX Activity Assay kit) and kinetics. In kind it is biochemical. The protocol:
For all inhibitory activity, IC50 was calculated. […] The IC50 value was calculated from the plotted graph of the inhibition activity for the five different peptide concentrations. The effect of the peptide on COX-1 and COX-2 was measured using the COX Activity Assay kit from Cayman Chemical (Item No. 760151, Ann Arbor, MI, USA). COX activity was determined according to the instructions provided with the kit. The enzyme activity was assayed by calorimetric measurement of the appearance of oxidized N,N,N′,N′-Tetramethyl-p-phenylenediamine (TMPD) at 590 nm using BioTek Microplate Readers (Epoch™ 2 BioTek, Bad Friedrichshall, Germany). […] The kinetic parameters were evaluated by Lineweaver–Burk’s method. The reaction conditions were the same as in the enzyme inhibitory activity assay.

No end group written: not given here.

In general, IC50 refers to the midpoint of a concentration-inhibition curve. In the case of EQGFLPGPEESGR [ER-13, EQGFLPGPEESGR], the “NR test, HECa10 cell count compared to control” value (from here on “NR test … compared to control”) in the data set on HECa10 cells is given as “no statistically significant differences”. On COX-1, it took 4.78 µM to reach half-maximal inhibition (IC50).
Regarding “GEHGGAGMGGGQFQPV [GV-16, GEHGGAGMGGGQFQPV]”, the “NR test … compared to control” value in the data set on HECa10 cells is listed as “no statistically significant differences”. On COX-1, half-maximal inhibition (IC50) was put at 8 µM.
On the same counts, the results for GNPVGGVGHGTTGT [GT-14, GNPVGGVGHGTTGT] are “no statistically significant differences” and 12.3 µM.
As to GQLGEHGGAGMG [GG-12, GQLGEHGGAGMG], the “NR test … compared to control” value in the data set with HECa10 cells was “no statistically significant differences”. For the same sequence, on COX-1, the IC50 was 7.11 µM.
RLARAGLAQ [RQ-9, RLARAGLAQ]: the “NR test … compared to control” value in the data set with HECa10 cells is reported as “no statistically significant differences”. The same sequence showed an IC50 against COX-1 of 0.325 µM.
The corresponding values for YGNPVGGVGH [YH-10, YGNPVGGVGH] are “declined statistically significantly” and 17.4 µM.
